Test results taken from patent US20230085307A1, “PYRIDAZINONE COMPOUND AND HERBICIDE” (NISSAN CHEMICAL CORPORATION, priority 2019, published 2023).

Key:
Japanese bulrush = experiment: Test Example 1: herbicidal activity, application before weed generation under submerged conditions (Table 16, symbol B); assay type: in vivo, Japanese bulrush (Schoenoplectus juncoides); details: 320 g/ha applied herbicide
Procedure, shortened: (§1)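 Submerged Wagner pots (alluvial soil, 4 cm water) sown with weed seeds and planted with 2.5-leaf rice seedlings; emulsifiable concentrate diluted in water applied to water surface on sowing day. Held in greenhouse at 25-30 °C; injury scored 0-5 by herbicidal rate after three weeks.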

green foxtail [1] = experiment: Test Example 4: herbicidal effect by soil treatment (Table 19, symbol G); assay type: in vivo, green foxtail (Setaria viridis); details: amount of applied herbicide 320 g/ha
Procedure, shortened: (§2)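 In this soil treatment, the formulated compound reached the seeds only through the soil: seeds were buried about 1.5 cm deep in sterilized diluvial soil, then the diluted emulsion was sprayed over the surface. After three weeks at 25° C. to 30° C. in a greenhouse, effects were graded on criteria from an earlier test.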

Italian ryegrass [2] = experiment: Test Example 5: herbicidal effect by foliage application, plastic box (Table 20, symbol K); assay type: in vivo, Italian ryegrass (Lolium multiflorum); details: foliage application, 320 g/ha, three weeks after application
Procedure, shortened: (§3)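 Plants were sown into sterilized diluvial soil under about 1.5 cm cover and kept in a greenhouse at 25° C. to 30° C. Fourteen days on, foliage received an even spray of the diluted emulsion. Herbicidal or crop effect was judged three weeks afterwards.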

barnyard grass [3] = experiment: Test Example 4: herbicidal effect by soil treatment (Table 19, symbol H); assay type: in vivo, barnyard grass (Echinochloa crus-galli); details: amount of applied herbicide 320 g/ha
Procedure, shortened: as §2

windgrass [4] = experiment: Test Example 4: herbicidal effect by soil treatment (Table 19, symbol L); assay type: in vivo, windgrass (Apera spica-venti); details: amount of applied herbicide 320 g/ha
Procedure, shortened: as §2

velvetleaf [5] = experiment: Test Example 4: herbicidal effect by soil treatment (Table 19, symbol M); assay type: in vivo, velvetleaf (Abutilon theophrasti); details: amount of applied herbicide 320 g/ha
Procedure, shortened: as §2

green foxtail [6] = experiment: Test Example 5: herbicidal effect by foliage application, plastic box (Table 20, symbol G); assay type: in vivo, green foxtail (Setaria viridis); details: foliage application, 320 g/ha, three weeks after application
Procedure, shortened: as §3

blackgrass [7] = experiment: Test Example 4: herbicidal effect by soil treatment (Table 19, symbol J); assay type: in vivo, blackgrass (Alopecurus myosuroides); details: amount of applied herbicide 320 g/ha
Procedure, shortened: as §2

blackgrass [8] = experiment: Test Example 5: herbicidal effect by foliage application, plastic box (Table 20, symbol J); assay type: in vivo, blackgrass (Alopecurus myosuroides); details: foliage application, 320 g/ha, three weeks after application
Procedure, shortened: as §3

Chinese sprangletop = experiment: Test Example 3: herbicidal effect by foliage application, Wagner pot (Table 18, symbol D); assay type: in vivo, chinese sprangletop (Leptochloa chinensis); details: 320 g/ha
Procedure, shortened: (§4)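 Plants were sown in alluvial soil held under 0.1–0.5 cm standing water and grown 14 days in a greenhouse at 25–30 °C. An emulsifiable formulation, water-diluted to the set dose, was then sprayed onto the foliage, and effects were scored three weeks later using previously defined criteria.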

redroot pigweed [9] = experiment: Test Example 5: herbicidal effect by foliage application, plastic box (Table 20, symbol N); assay type: in vivo, redroot pigweed (Amaranthus retroflexus); details: foliage application, 320 g/ha, three weeks after application
Procedure, shortened: as §3

chickweed [10] = experiment: Test Example 4: herbicidal effect by soil treatment (Table 19, symbol P); assay type: in vivo, common chickweed (Stellaria media); details: amount of applied herbicide 320 g/ha
Procedure, shortened: as §2

southern crabgrass [11] = experiment: Test Example 5: herbicidal effect by foliage application, plastic box (Table 20, symbol F); assay type: in vivo, southern crabgrass (Digitaria ciliaris); details: foliage application, 320 g/ha, three weeks after application
Procedure, shortened: as §3

lambsquarters [12] = experiment: Test Example 5: herbicidal effect by foliage application, plastic box (Table 20, symbol O); assay type: in vivo, lambsquarters (Chenopodium album); details: foliage application, 320 g/ha, three weeks after application
Procedure, shortened: as §3

velvetleaf [13] = experiment: Test Example 5: herbicidal effect by foliage application, plastic box (Table 20, symbol M); assay type: in vivo, velvetleaf (Abutilon theophrasti); details: foliage application, 320 g/ha, three weeks after application
Procedure, shortened: as §3

persian speedwell [14] = experiment: Test Example 5: herbicidal effect by foliage application, plastic box (Table 20, symbol R); assay type: in vivo, Persian speedwell (Veronica persica); details: foliage application, 320 g/ha, three weeks after application
Procedure, shortened: as §3

lambsquarters [15] = experiment: Test Example 4: herbicidal effect by soil treatment (Table 19, symbol O); assay type: in vivo, lambsquarters (Chenopodium album); details: amount of applied herbicide 320 g/ha
Procedure, shortened: as §2

wild oat [16] = experiment: Test Example 4: herbicidal effect by soil treatment (Table 19, symbol I); assay type: in vivo, wild oat (Avena fatua); details: amount of applied herbicide 320 g/ha
Procedure, shortened: as §2

oval-leafed pondweed = experiment: Test Example 1: herbicidal activity, application before weed generation under submerged conditions (Table 16, symbol C); assay type: in vivo, oval-leafed pondweed (Monochoria vaginalis); details: 320 g/ha applied herbicide
Procedure, shortened: as §1

rice flat sedge = experiment: Test Example 3: herbicidal effect by foliage application, Wagner pot (Table 18, symbol E); assay type: in vivo, rice flat sedge (Cyperus iria); details: 320 g/ha
Procedure, shortened: as §4

late watergrass = experiment: Test Example 1: herbicidal activity, application before weed generation under submerged conditions (Table 16, symbol A); assay type: in vivo, late watergrass (Echinochloa oryzicola); details: 320 g/ha applied herbicide
Procedure, shortened: as §1

windgrass [17] = experiment: Test Example 5: herbicidal effect by foliage application, plastic box (Table 20, symbol L); assay type: in vivo, windgrass (Apera spica-venti); details: foliage application, 320 g/ha, three weeks after application
Procedure, shortened: as §3

barnyard grass [18] = experiment: Test Example 5: herbicidal effect by foliage application, plastic box (Table 20, symbol H); assay type: in vivo, barnyard grass (Echinochloa crus-galli); details: foliage application, 320 g/ha, three weeks after application
Procedure, shortened: as §3

southern crabgrass [19] = experiment: Test Example 4: herbicidal effect by soil treatment (Table 19, symbol F); assay type: in vivo, southern crabgrass (Digitaria ciliaris); details: amount of applied herbicide 320 g/ha
Procedure, shortened: as §2

barnyard grass [20] = experiment: Test Example 3: herbicidal effect by foliage application, Wagner pot (Table 18, symbol H); assay type: in vivo, barnyard grass (Echinochloa crus-galli); details: 320 g/ha
Procedure, shortened: as §4

wild oat [21] = experiment: Test Example 5: herbicidal effect by foliage application, plastic box (Table 20, symbol I); assay type: in vivo, wild oat (Avena fatua); details: foliage application, 320 g/ha, three weeks after application
Procedure, shortened: as §3

chickweed [22] = experiment: Test Example 5: herbicidal effect by foliage application, plastic box (Table 20, symbol P); assay type: in vivo, common chickweed (Stellaria media); details: foliage application, 320 g/ha, three weeks after application
Procedure, shortened: as §3

Italian ryegrass [23] = experiment: Test Example 4: herbicidal effect by soil treatment (Table 19, symbol K); assay type: in vivo, Italian ryegrass (Lolium multiflorum); details: amount of applied herbicide 320 g/ha
Procedure, shortened: as §2

persian speedwell [24] = experiment: Test Example 4: herbicidal effect by soil treatment (Table 19, symbol R); assay type: in vivo, Persian speedwell (Veronica persica); details: amount of applied herbicide 320 g/ha
Procedure, shortened: as §2

redroot pigweed [25] = experiment: Test Example 4: herbicidal effect by soil treatment (Table 19, symbol N); assay type: in vivo, redroot pigweed (Amaranthus retroflexus); details: amount of applied herbicide 320 g/ha
Procedure, shortened: as §2

Compound	Herbicidal effect on B: Japanese bulrush (grade 0-5) (Japanese bulrush)	herbicidal effect rating, G: green foxtail (green foxtail [1])	herbicidal effect grade, K: Italian ryegrass (Italian ryegrass [2])	herbicidal effect rating, H: barnyard grass (barnyard grass [3])	herbicidal effect rating, L: windgrass (windgrass [4])	herbicidal effect rating, M: velvetleaf (velvetleaf [5])	herbicidal effect grade, G: green foxtail (green foxtail [6])	herbicidal effect rating, J: blackgrass (blackgrass [7])	herbicidal effect grade, J: blackgrass (blackgrass [8])	herbicidal effect on D (Chinese sprangletop), rating 0-5 (Chinese sprangletop)	herbicidal effect grade, N: redroot pigweed (redroot pigweed [9])	herbicidal effect rating, P: chickweed (chickweed [10])	herbicidal effect grade, F: southern crabgrass (southern crabgrass [11])	herbicidal effect grade, O: lambsquarters (lambsquarters [12])	herbicidal effect grade, M: velvetleaf (velvetleaf [13])	herbicidal effect grade, R: persian speedwell (persian speedwell [14])	herbicidal effect rating, O: lambsquarters (lambsquarters [15])	herbicidal effect rating, I: wild oat (wild oat [16])	Herbicidal effect on C: oval-leafed pondweed (grade 0-5) (oval-leafed pondweed)	herbicidal effect on E (rice flat sedge), rating 0-5 (rice flat sedge)	also measured
CCCC(=O)Oc1c(C)nn(C)c(=O)c1-c1c(-c2ccccc2OCC)sc2ccccc12 [1-012]	1 (Herbicidal rate of 5% or more and less than 20%)	5 (Herbicidal rate of 90% or more (almost completely withered))	3 (Herbicidal rate of 40% or more and less than 70%)	5 (Herbicidal rate of 90% or more (almost completely withered))	3 (Herbicidal rate of 40% or more and less than 70%)	0 (Herbicidal rate of 5% or less (almost no effect))	5 (Herbicidal rate of 90% or more (almost completely withered))	5 (Herbicidal rate of 90% or more (almost completely withered))	4 (Herbicidal rate of 70% or more and less than 90%)	0 (Herbicidal rate of 5% or less (almost no effect))	3 (Herbicidal rate of 40% or more and less than 70%)	0 (Herbicidal rate of 5% or less (almost no effect))	5 (Herbicidal rate of 90% or more (almost completely withered))	2 (Herbicidal rate of 20% or more and less than 40%)	3 (Herbicidal rate of 40% or more and less than 70%)	5 (Herbicidal rate of 90% or more (almost completely withered))	0 (Herbicidal rate of 5% or less (almost no effect))	1 (Herbicidal rate of 5% or more and less than 20%)	3 (Herbicidal rate of 40% or more and less than 70%)	5 (Herbicidal rate of 90% or more (almost completely withered))	Herbicidal effect on A: late watergrass (grade 0-5) (late watergrass): 3 (Herbicidal rate of 40% or more and less than 70%); herbicidal effect grade, L: windgrass (windgrass [17]): 4 (Herbicidal rate of 70% or more and less than 90%); herbicidal effect grade, H: barnyard grass (barnyard grass [18]): 5 (Herbicidal rate of 90% or more (almost completely withered)); herbicidal effect rating, F: southern crabgrass (southern crabgrass [19]): 4 (Herbicidal rate of 70% or more and less than 90%); herbicidal effect on H (barnyard grass), rating 0-5 (barnyard grass [20]): 5 (Herbicidal rate of 90% or more (almost completely withered)); herbicidal effect grade, I: wild oat (wild oat [21]): 4 (Herbicidal rate of 70% or more and less than 90%); herbicidal effect grade, P: chickweed (chickweed [22]): 5 (Herbicidal rate of 90% or more (almost completely withered)); herbicidal effect rating, K: Italian ryegrass (Italian ryegrass [23]): 0 (Herbicidal rate of 5% or less (almost no effect)); herbicidal effect rating, R: persian speedwell (persian speedwell [24]): 0 (Herbicidal rate of 5% or less (almost no effect)); herbicidal effect rating, N: redroot pigweed (redroot pigweed [25]): 0 (Herbicidal rate of 5% or less (almost no effect))
CCCC(=O)Oc1c(C)nn(C)c(=O)c1-c1c(-c2ccc(F)c(F)c2)sc2ccccc12 [1-047]	0 (Herbicidal rate of 5% or less (almost no effect))	2 (Herbicidal rate of 20% or more and less than 40%)	0 (Herbicidal rate of 5% or less (almost no effect))	3 (Herbicidal rate of 40% or more and less than 70%)	0 (Herbicidal rate of 5% or less (almost no effect))	0 (Herbicidal rate of 5% or less (almost no effect))	0 (Herbicidal rate of 5% or less (almost no effect))	0 (Herbicidal rate of 5% or less (almost no effect))	0 (Herbicidal rate of 5% or less (almost no effect))	0 (Herbicidal rate of 5% or less (almost no effect))	3 (Herbicidal rate of 40% or more and less than 70%)	5 (Herbicidal rate of 90% or more (almost completely withered))	0 (Herbicidal rate of 5% or less (almost no effect))	3 (Herbicidal rate of 40% or more and less than 70%)	5 (Herbicidal rate of 90% or more (almost completely withered))	3 (Herbicidal rate of 40% or more and less than 70%)	3 (Herbicidal rate of 40% or more and less than 70%)	0 (Herbicidal rate of 5% or less (almost no effect))	0 (Herbicidal rate of 5% or less (almost no effect))	5 (Herbicidal rate of 90% or more (almost completely withered))	Herbicidal effect on A: late watergrass (grade 0-5) (late watergrass): 3 (Herbicidal rate of 40% or more and less than 70%); herbicidal effect grade, L: windgrass (windgrass [17]): 0 (Herbicidal rate of 5% or less (almost no effect)); herbicidal effect grade, H: barnyard grass (barnyard grass [18]): 0 (Herbicidal rate of 5% or less (almost no effect)); herbicidal effect rating, F: southern crabgrass (southern crabgrass [19]): 0 (Herbicidal rate of 5% or less (almost no effect)); herbicidal effect on H (barnyard grass), rating 0-5 (barnyard grass [20]): 2 (Herbicidal rate of 20% or more and less than 40%); herbicidal effect grade, I: wild oat (wild oat [21]): 0 (Herbicidal rate of 5% or less (almost no effect)); herbicidal effect grade, P: chickweed (chickweed [22]): 5 (Herbicidal rate of 90% or more (almost completely withered)); herbicidal effect rating, K: Italian ryegrass (Italian ryegrass [23]): 0 (Herbicidal rate of 5% or less (almost no effect)); herbicidal effect rating, R: persian speedwell (persian speedwell [24]): 5 (Herbicidal rate of 90% or more (almost completely withered)); herbicidal effect rating, N: redroot pigweed (redroot pigweed [25]): 0 (Herbicidal rate of 5% or less (almost no effect))
